For orientation: Kd means the constant that tells how readily two partners part at equilibrium. Low readings indicate a tighter complex, high ones a looser complex.

The test deals with T1, Cysteinyl leukotriene receptor 1 (Cavia porcellus, UniProt Q2NNR5).
T1 sequence (Q2NNR5 whole entry): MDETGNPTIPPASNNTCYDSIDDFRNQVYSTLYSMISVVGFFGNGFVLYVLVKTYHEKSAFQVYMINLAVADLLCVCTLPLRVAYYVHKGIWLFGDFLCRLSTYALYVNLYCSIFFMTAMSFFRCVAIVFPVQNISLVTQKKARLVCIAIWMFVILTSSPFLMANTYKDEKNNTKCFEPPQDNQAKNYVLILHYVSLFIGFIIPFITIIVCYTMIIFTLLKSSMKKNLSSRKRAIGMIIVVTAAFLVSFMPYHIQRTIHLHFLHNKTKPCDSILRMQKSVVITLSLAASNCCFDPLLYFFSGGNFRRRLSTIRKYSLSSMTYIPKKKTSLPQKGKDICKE
Description: ChEBML_52039. The protocol: Dissociation constant for CysLT1 receptor was determined by the displacement of [3H]LTD4 from guinea pig lung membranes

The compound `COc1cc(C(=O)NS(=O)(=O)c2ccccc2)ccc1Cn1ncc2ccc(NC(=O)OC3CCCC3)cc21` had a dissociation constant Kd of 30.1 µM.
